Target: T1, Tsg101-UEV (Tsg101 amino acids 1-145) (Homo sapiens, UniProt Q99816)
T1 construct: The recombinant Tsg101 fragment (amino acids 1-145), prepared as described above in Materials and Methods; His6 (N); thrombin protease cleavage site (N); made in house; host or cells: E. coli ROSETTA 2 (DE3) pLysS
T1 sequence (Q99816 1-145): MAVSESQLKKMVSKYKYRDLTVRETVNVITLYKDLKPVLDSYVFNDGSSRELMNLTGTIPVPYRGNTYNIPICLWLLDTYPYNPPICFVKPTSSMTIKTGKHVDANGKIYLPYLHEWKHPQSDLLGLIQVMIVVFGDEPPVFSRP
Assay: Fluorescence thermal shift (FTS) assay, binding to Tsg101-UEV
Conditions: for Tm (melting temperature) shift of Tsg101-UEV: FTS, Sypro-Orange, no DTT
Description: The fluorescence-based thermal shift assay is based on the observation that a protein unfolds upon heating, exposing the hydrophobic residues within its tertiary structure. The unfolding temperature (Tm) is determined by the protein's primary sequence and solution environment. The FTS assay uses a fluorescent dye sensitive to a hydrophobic environment to probe protein stability and its modulation by small molecule ligands. The dye has a low fluorescence quantum yield when in a polar environment. Once in contact with the hydrophobic core normally buried within a folded protein that has become exposed during the thermal unfolding (melting) process, the quantum yield of the dye increases, thus providing a reporting signal. Furthermore, a protein's stability can be affected by ligand binding, resulting in an increase or decrease in its melting temperature. FTS assay uses the Tm shift upon binding of a ligand to identify hit compounds for drug discovery.
Identification of prazole compounds that bind the UEV ubiquitin-binding domain of Tsg101. We screened chemical compounds using a fluorescence thermal shift (FTS) assay (27, 28) to identify small molecules that bind directly to a truncated form of Tsg101 (amino acids 1-145) which contains the Ubiquitin E2 variant (UEV) ubiquitin-binding domain (FIG. 1). The UEV, which contains the PT/SAP binding domain in addition to the ubiquitin-binding domain, provides chaperone functions to HIV-1 Gag that is independent of its interaction with the PS/TAP motif, and contains the prazole binding site (5). This truncated Tsg101, called Tsg101-UEV, was used because full-length Tsg101 has significant solubility issues in aqueous solution. Tsg101 is an adaptor protein and thus lacks a readily deployable functional assay, making FTS a tractable approach to identify interacting compounds. FTS monitors protein thermal denaturation using SYPRO-Orange, a dye which fluoresces when bound to hydrophobic surfaces, which allows monitoring of the changes in hydrophobic surface exposure during protein denaturation (27). Since ligand binding affects protein thermal stability, it can be detected through modulation of protein thermal denaturation (melting) as a shift in melting temperature (Tm). Tsg101-UEV has a well-defined melting curve suitable for FTS. We used the FTS assay to identify compounds that bind to Tsg101-UEV.
Purification of Tsg101 (1-145). N-terminally His6-tagged Tsg101 UEV domain (amino acids 1-145), called Tsg101-UEV, was encoded in a pET-28b vector (Novagen—EMD Millipore), which also included a thrombin protease cleavage site (His6-Thrombin Site-Tsg101, 1-145). Tsg101-UEV was grown in LB broth with Kanamycin (30 μg/ml) in ROSETTA 2 (DE3) pLysS E. coli competent cells (EMD Millipore) and induced with 1 mM IPTG at room temperature for 3 h. Bacteria were collected by centrifugation at 4,000 rpm for 10 min at […]. Bacteria were suspended in 50 ml binding buffer (20 mM Tris-HCl, pH 7.9, 0.5 M NaCl, 5 mM Imidazole) with 1 mM PMSF, 0.1% NP40, and a Protease Inhibitor Cocktail Tablet (Roche) and sonicated for 3.5 min on ice. The sonicate was spun at 9,000 rpm for 1 h at […] in a Sorvall centrifuge. The supernatant was collected and passed through a 1.5 ml Ni-NTA Agarose column. The column was washed with 20 mM Tris-HCl, pH 7.9, 0.5 M NaCl, 30 mM Imidazole wash buffer. […] Protein concentration was determined with a Nano Drop Spectrophotometer at […]. […]

Compound	Tm shift of Tsg101-UEV on addition of DTT (FTS with reducing agent DTT)	Tm (melting temperature) shift of Tsg101-UEV	Tm (melting temperature) shift of Tsg101-UEV (listed as tenatoprazole)
COc1ccnc(C[S+]([O-])c2nc3ccc(-n4cccc4)cc3[nH]2)c1C (stereo not shown) [Ilaprazole, 2-[(4-methoxy-3-methylpyridin-2-yl)methylsulfinyl]-6-pyrrol-1-yl-1H-benzimidazole]	blocked by the addition of DTT	largest thermal shift	
COc1ccc2[nH]c([S+]([O-])Cc3ncc(C)c(OC)c3C)nc2n1 (stereo not shown) [Tenatoprazole]		dose-dependent shift in the Tm	destabilizes the native protein structure
